Where “and” joins values, the source holds several entries; their conditions need not be identical. Equal values may be shown once. Inconclusive results and toxic doses are left out.
System: BDF1 mice, B16 melanoma ip, median survival T/C
Assay: NCI In Vivo Anticancer Drug Screen. Data for tumor model B16 Melanoma (intraperitoneal) in B6D2F1 (BDF1) mice
Conditions: endpoint: median survival time, higher = longer survival
Method in brief: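 Survival or tumor size is measured after treatment of tumor-bearing mice and normalised to the vehicle-treated control group.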

[1] = dose: 6.25 mg/kg/injection, schedule: Q01DX009 (ip), vehicle: suspension in saline
[2] = dose: 12.5 mg/kg/injection, schedule: Q01DX009 (ip), vehicle: Klucel (hydroxypropylcellulose) (HPC)
[3] = dose: 6.25 mg/kg/injection, schedule: Q01DX009 (ip), vehicle: Klucel (hydroxypropylcellulose) (HPC)
[4] = dose: 25.0 mg/kg/injection, schedule: Q01DX009 (ip), vehicle: Klucel (hydroxypropylcellulose) (HPC)
[5] = dose: 100.0 mg/kg/injection, schedule: Q01DX009 (ip), vehicle: saline with Tween-80
[6] = dose: 50.0 mg/kg/injection, schedule: Q01DX009 (ip), vehicle: Klucel (hydroxypropylcellulose) (HPC)
[7] = dose: 100.0 mg/kg/injection, schedule: Q01DX009 (ip), vehicle: Klucel (hydroxypropylcellulose) (HPC)
[8] = dose: 25.0 mg/kg/injection, schedule: Q01DX009 (ip), vehicle: saline
[9] = dose: 50.0 mg/kg/injection, schedule: Q01DX009 (ip), vehicle: saline
[10] = dose: 6.25 mg/kg/injection, schedule: Q01DX009 (ip), vehicle: saline
[11] = dose: 12.5 mg/kg/injection, schedule: Q01DX009 (ip), vehicle: saline
[12] = dose: 3.12 mg/kg/injection, schedule: Q01DX009 (ip), vehicle: Klucel (hydroxypropylcellulose) (HPC)
[13] = dose: 100.0 mg/kg/injection, schedule: Q04DX003 (ip), vehicle: Klucel (hydroxypropylcellulose) (HPC)
[14] = dose: 200.0 mg/kg/injection, schedule: Q01DX009 (ip), vehicle: Klucel (hydroxypropylcellulose) (HPC)
[15] = dose: 200.0 mg/kg/injection, schedule: Q04DX003 (ip), vehicle: Klucel (hydroxypropylcellulose) (HPC)
[16] = dose: 400.0 mg/kg/injection, schedule: Q01DX009 (ip), vehicle: Klucel (hydroxypropylcellulose) (HPC)

Cc1ncc(CNC(=O)N(CCCl)N=O)c(N)n1
T/C (dose: 1.56 mg/kg/injection, schedule: Q01DX009 (ip), vehicle: suspension in saline): 155 % of control | T/C (dose: 3.12 mg/kg/injection, schedule: Q01DX009 (ip), vehicle: suspension in saline): 193 % of control | T/C [1]: 279 % of control | T/C [2]: 164 % of control | T/C (dose: 12.5 mg/kg/injection, schedule: Q01DX009 (ip), vehicle: suspension in saline): 322 % of control

CC(=O)NC(C=O)C(O)C(O)C(O)C(=O)O (stereo not drawn) (tested in a mixture with another compound)
T/C [3]: 100 % of control | T/C [2]: 107 % of control | T/C [4]: 98 % of control

COc1ccc(NC(=O)Nc2ccccc2OC)cc1
T/C [5]: 102 % of control | T/C (dose: 200.0 mg/kg/injection, schedule: Q01DX009 (ip), vehicle: saline with Tween-80): 115 % of control | T/C (dose: 400.0 mg/kg/injection, schedule: Q01DX009 (ip), vehicle: saline with Tween-80): 101 % of control

CCCCCCCCCCCCCCCC(=O)N(CCCN)C(C)CCCN(CC)CC (stereo not drawn)
T/C [2]: 105 % of control | T/C [4]: 100 % of control | T/C [6]: 107 % of control | T/C [7]: 101 % of control

CC(C)C(O)(C(=O)OCC1=CC[N+]2(C)CCC(O)C12)C(C)O (stereo not drawn)
T/C (dose: 12.5 mg/kg/injection, schedule: Q01DX009 (ip), vehicle: water): 105 % of control | T/C (dose: 25.0 mg/kg/injection, schedule: Q01DX009 (ip), vehicle: water): 107 % of control | T/C (dose: 50.0 mg/kg/injection, schedule: Q01DX009 (ip), vehicle: water): 113 % of control | T/C (dose: 100.0 mg/kg/injection, schedule: Q01DX009 (ip), vehicle: water): 109 % of control | T/C (dose: 200.0 mg/kg/injection, schedule: Q01DX009 (ip), vehicle: water): 108 % of control

C=C1C(=O)OC2CC(C)C3C4OC4C(O)C3(C)C(O)C12 (stereo not drawn)
T/C (dose: 9.38 mg/kg/injection, schedule: Q01DX009 (ip), vehicle: saline): 94 % of control | T/C (dose: 18.75 mg/kg/injection, schedule: Q01DX009 (ip), vehicle: saline): 94 % of control | T/C (dose: 37.5 mg/kg/injection, schedule: Q01DX009 (ip), vehicle: saline): 103 % of control

NC(=O)CNC1=C(N2CC2)C(=O)C(NCC(N)=O)=C(N2CC2)C1=O
T/C (dose: 0.5 mg/kg/injection, schedule: Q01DX009 (ip), vehicle: saline): 96 % of control | T/C (dose: 1.0 mg/kg/injection, schedule: Q01DX009 (ip), vehicle: saline): 115 % of control | T/C (dose: 4.0 mg/kg/injection, schedule: Q01DX009 (ip), vehicle: saline): 124 % of control

Cc1cccc(NC(=O)COc2ccc(Cl)cc2)c1C
T/C [8]: 98 % of control | T/C [9]: 100 % of control | T/C [5]: 98 % of control | T/C (dose: 100.0 mg/kg/injection, schedule: Q01DX009 (ip), vehicle: saline): 105 % of control

O=C(O)C(=O)O
T/C [10]: 101 % of control | T/C [11]: 105 % of control | T/C [8]: 96 % of control and 108 % of control | T/C [9]: 95 % of control

C(=P(c1ccccc1)(c1ccccc1)c1ccccc1)[P+](c1ccccc1)(c1ccccc1)c1ccccc1
T/C [12]: 111 % of control | T/C [1]: 157 % of control

O=C(O)/C=C\C(=O)Nc1ccccn1
T/C (dose: 5.0 mg/kg/injection, schedule: Q01DX009 (ip), vehicle: saline): 100 % of control | T/C (dose: 10.0 mg/kg/injection, schedule: Q01DX009 (ip), vehicle: saline): 100 % of control | T/C (dose: 30.0 mg/kg/injection, schedule: Q01DX009 (ip), vehicle: saline): 112 % of control | T/C (dose: 60.0 mg/kg/injection, schedule: Q01DX009 (ip), vehicle: saline): 109 % of control

O=C(NCCO)Nc1ccc(Cl)c(Cl)c1
T/C (dose: 90.0 mg/kg/injection, schedule: Q01DX009 (ip), vehicle: other): 102 % of control | T/C (dose: 100.0 mg/kg/injection, schedule: Q01DX009 (ip), vehicle: other): 100 % of control | T/C (dose: 200.0 mg/kg/injection, schedule: Q01DX009 (ip), vehicle: other): 94 % of control | T/C (dose: 300.0 mg/kg/injection, schedule: Q01DX009 (ip), vehicle: other): 87 % of control | T/C (dose: 400.0 mg/kg/injection, schedule: Q01DX009 (ip), vehicle: other): 90 % of control

O=c1[nH]c2ccccc2n1C1CCN(CCCC(c2ccc(F)cc2)c2ccc(F)cc2)CC1
T/C (dose: 1.56 mg/kg/injection, schedule: Q01DX009 (ip), vehicle: Klucel (hydroxypropylcellulose) (HPC)): 102 % of control | T/C [12]: 100 % of control | T/C [3]: 100 % of control | T/C [2]: 94 % of control | T/C [4]: 105 % of control | T/C [6]: 87 % of control | T/C [7]: 87 % of control

COc1ccc(NC(=O)Oc2cc(C)cc(C)c2)cc1
T/C [7]: 96 % of control | T/C [13]: 112 % of control | T/C [14]: 96 % of control | T/C [15]: 106 % of control | T/C [16]: 89 % of control | T/C (dose: 400.0 mg/kg/injection, schedule: Q04DX003 (ip), vehicle: Klucel (hydroxypropylcellulose) (HPC)): 112 % of control

CC(CN1c2ccccc2Sc2cccnc21)N(C)C (stereo not drawn)
T/C (dose: 3.12 mg/kg/injection, schedule: Q01DX009 (ip), vehicle: saline): 97 % of control | T/C [10]: 107 % of control | T/C [11]: 112 % of control | T/C [8]: 109 % of control | T/C [9]: 100 % of control

CO[C@H]1Nc2c(ccc(C)c2O)C(=O)N2C=C(/C=C/C(N)=O)C[C@@H]12
T/C (dose: 0.05 mg/kg/injection, schedule: Q04DX003 (ip), vehicle: DMSO): 111 % of control | T/C (dose: 0.06 mg/kg/injection, schedule: Q01DX009 (ip), vehicle: saline with Tween-80): 92 % of control | T/C (dose: 0.1 mg/kg/injection, schedule: Q04DX003 (ip), vehicle: DMSO): 101 % of control | T/C (dose: 0.12 mg/kg/injection, schedule: Q01DX009 (ip), vehicle: saline with Tween-80): 94 % of control | T/C (dose: 0.2 mg/kg/injection, schedule: Q04DX003 (ip), vehicle: DMSO): 120 % of control | T/C (dose: 0.25 mg/kg/injection, schedule: Q01DX009 (ip), vehicle: saline with Tween-80): 97 % of control | T/C (dose: 0.4 mg/kg/injection, schedule: Q04DX003 (ip), vehicle: DMSO): 112 % of control | T/C (dose: 16.5 micrograms/kg/injection, schedule: Q01DX009 (ip), vehicle: saline + alcohol): 106 % of control | T/C (dose: 25.0 micrograms/kg/injection, schedule: Q01DX009 (ip), vehicle: saline with Tween-80): 100 % of control | T/C (dose: 25.0 micrograms/kg/injection, schedule: Q04DX003 (ip), vehicle: saline with Tween-80): 101 % of control | T/C (dose: 33.0 micrograms/kg/injection, schedule: Q01DX009 (ip), vehicle: saline + alcohol): 100 % of control | T/C (dose: 50.0 micrograms/kg/injection, schedule: Q01DX009 (ip), vehicle: saline with Tween-80): 104 % of control | T/C (dose: 50.0 micrograms/kg/injection, schedule: Q04DX003 (ip), vehicle: saline with Tween-80): 104 % of control | T/C (dose: 66.0 micrograms/kg/injection, schedule: Q01DX009 (ip), vehicle: saline + alcohol): 107 % of control | T/C (dose: 100.0 micrograms/kg/injection, schedule: Q01DX009 (ip), vehicle: saline with Tween-80): 96 % of control | T/C (dose: 100.0 micrograms/kg/injection, schedule: Q04DX003 (ip), vehicle: saline with Tween-80): 111 % of control | T/C (dose: 200.0 micrograms/kg/injection, schedule: Q01DX009 (ip), vehicle: saline with Tween-80): 95 % of control | T/C (dose: 200.0 micrograms/kg/injection, schedule: Q04DX003 (ip), vehicle: saline with Tween-80): 107 % of control

O=C1NC(c2ccc3ccccc3c2)Nc2ccccc21 (stereo not drawn)
T/C [7]: 96 % of control | T/C [14]: 103 % of control | T/C [16]: 90 % of control

CC(C)=CCC1(O)C(=O)c2ccccc2C1(O)C(=O)O (stereo not drawn)
T/C [4]: 92 % of control | T/C [6]: 101 % of control | T/C [7]: 90 % of control | T/C [14]: 93 % of control

CC(C)c1cccc(C(C)C)c1OC(=O)Nc1ccccc1Cl
T/C [13]: 100 % of control | T/C [15]: 96 % of control

CCOC(=O)C(CC)(CCC(C)C)C(=O)OCC
T/C (dose: 25.0 mg/kg/injection, schedule: Q01DX009 (ip), vehicle: saline with Tween-80): 102 % of control | T/C (dose: 50.0 mg/kg/injection, schedule: Q01DX009 (ip), vehicle: saline with Tween-80): 99 % of control | T/C [5]: 97 % of control

From PubChem BioAssay AID192 (DTP/NCI, 2004)
